Measurements from ChEMBL document CHEMBL1649488, “In vitro activities of echinocandins against Candida krusei determined by three methods: MIC and minimal fungicidal concentration measurements and time-kill studies” (2009).
Values after ≈ are worked out from the molar mass of the structure shown. Starred links: 1 amine or outer side, 2 acyl side, 3 side chain; linkers in the order of their positions; H or OH if unused. Positions of bridges follow the written chain, without caps; N, C: chain ends. Non-standard residues stand in square brackets, D forms with d. Residues, ends and D or L forms follow the SMILES beside them. *: point of attachment. pTerphenylCO(4''-OnC5H11) = CCCCCOc1ccc(-c2ccc(-c3ccc(C(=O)*)cc3)cc2)cc1; Orn(4R-OH,5R-OH) = O=C([C@H](C[C@@H](O)[C@@H](O)N[*:3])N[*:1])[*:2]; hTyr(3S-OH,4S-OH) = N[C@H](C(=O)O)[C@H](O)[C@@H](O)c1ccc(O)cc1; Pro(3S-OH,4S-Me) = C[C@H]1CN[C@H](C(=O)O)[C@H]1O; Hyp = O=C(O)[C@@H]1C[C@@H](O)CN1

Tests used:
Type in all cases: functional
Pichia kudriavzevii [1] = experiment: Antifungal activity against Candida krusei ATCC 6258 bloodstream forms assessed as minimum concentration producing >= 100% growth reduction after 48 hrs by M27-A3 microdilution method; settings: ATCC 6258, 48 h
Pichia kudriavzevii [2] = experiment: Fungicidal activity against Candida krusei CK6 bloodstream forms after 24 hrs by time-kill analysis; settings: CK6, 24 h
Pichia kudriavzevii [3] = experiment: Fungicidal activity against Candida krusei CK1 bloodstream forms after 24 hrs by time-kill analysis; settings: CK1, 24 h
Pichia kudriavzevii [4] = experiment: Antifungal activity against Candida krusei ATCC 6258 bloodstream forms assessed as time to achieve 50% fungal growth reduction at 2 mg/L by time-kill analysis
Pichia kudriavzevii [5] = experiment: Antifungal activity against Candida krusei ATCC 6258 bloodstream forms assessed as time to achieve 50% fungal growth reduction at 8 mg/L by time-kill analysis
Pichia kudriavzevii [6] = experiment: Antifungal activity against Candida krusei CK6 bloodstream forms after 24 hrs by time-kill analysis; settings: CK6, 24 h
Pichia kudriavzevii [7] = experiment: Antifungal activity against Candida krusei CY118 bloodstream forms after 24 hrs by time-kill analysis; settings: CY118, 24 h
Pichia kudriavzevii [8] = experiment: Fungicidal activity against Candida krusei ATCC 6258 bloodstream forms after 24 hrs by time-kill analysis; settings: ATCC 6258, 24 h
Pichia kudriavzevii [9] = experiment: Antifungal activity against Candida krusei ATCC 6258 bloodstream forms assessed as time to achieve 90% fungal growth reduction at 0.5 mg/L by time-kill analysis
Pichia kudriavzevii [10] = experiment: Antifungal activity against Candida krusei CK1 bloodstream forms after 24 hrs by time-kill analysis; settings: CK1, 24 h
Pichia kudriavzevii [11] = experiment: Fungicidal activity against Candida krusei CK2 bloodstream forms after 24 hrs by time-kill analysis; settings: CK2, 24 h
Pichia kudriavzevii [12] = experiment: Fungicidal activity against Candida krusei CK18 bloodstream forms after 24 hrs by time-kill analysis; settings: CK18, 24 h
Pichia kudriavzevii [13] = experiment: Fungicidal activity against Candida krusei EU220 bloodstream forms after 24 hrs by time-kill analysis; settings: EU220, 24 h
Pichia kudriavzevii [14] = experiment: Antifungal activity against Candida krusei CK18 bloodstream forms after 24 hrs by time-kill analysis; settings: CK18, 24 h
Pichia kudriavzevii [15] = experiment: Antifungal activity against Candida krusei ATCC 6258 bloodstream forms assessed as time to achieve 99% fungal growth reduction at 2 mg/L by time-kill analysis
Pichia kudriavzevii [16] = experiment: Antifungal activity against Candida krusei ATCC 6258 bloodstream forms assessed as time to achieve 99% fungal growth reduction at 0.12 mg/L by time-kill analysis
Pichia kudriavzevii [17] = experiment: Fungicidal activity against Candida krusei ATCC 6258 bloodstream forms after 48 hrs by M27-A3 microdilution method
Pichia kudriavzevii [18] = experiment: Antifungal activity against Candida krusei ATCC 6258 bloodstream forms assessed as time to achieve 90% fungal growth reduction at 2 mg/L by time-kill analysis
Pichia kudriavzevii [19] = experiment: Antifungal activity against Candida krusei ATCC 6258 bloodstream forms assessed as time to achieve 50% fungal growth reduction at 0.12 mg/L by time-kill analysis
Pichia kudriavzevii [20] = experiment: Fungicidal activity against Candida krusei EU123 bloodstream forms after 24 hrs by time-kill analysis; settings: EU123, 24 h
Pichia kudriavzevii [21] = experiment: Antifungal activity against Candida krusei ATCC 6258 bloodstream forms after 24 hrs by time-kill analysis; settings: ATCC 6258, 24 h
Pichia kudriavzevii [22] = experiment: Fungicidal activity against Candida krusei CY118 bloodstream forms after 24 hrs by time-kill analysis; settings: CY118, 24 h
Pichia kudriavzevii [23] = experiment: Antifungal activity against Candida krusei ATCC 6258 bloodstream forms assessed as time to achieve 99% fungal growth reduction at 0.5 mg/L by time-kill analysis
Pichia kudriavzevii [24] = experiment: Antifungal activity against Candida krusei ATCC 6258 bloodstream forms assessed as minimum concentration producing >= 50% growth reduction after 24 hrs by M27-A3 microdilution method; settings: ATCC 6258, 24 h
Pichia kudriavzevii [25] = experiment: Antifungal activity against Candida krusei ATCC 6258 bloodstream forms assessed as time to achieve 99% fungal growth reduction at 8 mg/L by time-kill analysis
Pichia kudriavzevii [26] = experiment: Antifungal activity against Candida krusei ATCC 6258 bloodstream forms assessed as minimum concentration producing >= 100% growth reduction after 24 hrs by M27-A3 microdilution method; settings: ATCC 6258, 24 h
Pichia kudriavzevii [27] = experiment: Antifungal activity against Candida krusei ATCC 6258 bloodstream forms assessed as time to achieve 90% fungal growth reduction at 8 mg/L by time-kill analysis
Pichia kudriavzevii [28] = experiment: Antifungal activity against Candida krusei EU220 bloodstream forms after 24 hrs by time-kill analysis; settings: EU220, 24 h
Pichia kudriavzevii [29] = experiment: Antifungal activity against Candida krusei CK2 bloodstream forms after 24 hrs by time-kill analysis; settings: CK2, 24 h
Pichia kudriavzevii [30] = experiment: Antifungal activity against Candida krusei EU123 bloodstream forms after 24 hrs by time-kill analysis; settings: EU123, 24 h
Pichia kudriavzevii [31] = experiment: Antifungal activity against Candida krusei ATCC 6258 bloodstream forms assessed as time to achieve 99.9% fungal growth reduction at 2 mg/L by time-kill analysis
Pichia kudriavzevii [32] = experiment: Antifungal activity against Candida krusei ATCC 6258 bloodstream forms assessed as time to achieve 99.9% fungal growth reduction at 8 mg/L by time-kill analysis
Pichia kudriavzevii [33] = experiment: Antifungal activity against Candida krusei ATCC 6258 bloodstream forms assessed as time to achieve 99.9% fungal growth reduction at 0.5 mg/L by time-kill analysis
Pichia kudriavzevii [34] = experiment: Antifungal activity against Candida krusei ATCC 6258 bloodstream forms assessed as minimum concentration producing >= 50% growth reduction after 48 hrs by M27-A3 microdilution method; settings: ATCC 6258, 48 h
Pichia kudriavzevii [35] = experiment: Antifungal activity against Candida krusei ATCC 6258 bloodstream forms assessed as time to achieve 50% fungal growth reduction at 0.5 mg/L by time-kill analysis
Pichia kudriavzevii [36] = experiment: Antifungal activity against Candida krusei ATCC 6258 bloodstream forms assessed as time to achieve 99.9% fungal growth reduction at 0.12 mg/L by time-kill analysis
Pichia kudriavzevii [37] = experiment: Antifungal activity against Candida krusei ATCC 6258 bloodstream forms assessed as time to achieve 90% fungal growth reduction at 0.12 mg/L by time-kill analysis

Q: With `CCCCCOc1ccc(-c2ccc(-c3ccc(C(=O)N[C@H]4C[C@@H](O)[C@@H](O)NC(=O)[C@@H]5[C@@H](O)[C@@H](C)CN5C(=O)[C@H]([C@@H](C)O)NC(=O)[C@H]([C@H](O)[C@@H](O)c5ccc(O)cc5)NC(=O)[C@@H]5C[C@@H](O)CN5C(=O)[C@H]([C@@H](C)O)NC4=O)cc3)cc2)cc1` [ANIDULAFUNGIN] ({pTerphenylCO(4''-OnC5H11)}-[Orn(4R-OH,5R-OH)]T[Hyp][hTyr(3S-OH,4S-OH)]T[Pro(3S-OH,4S-Me)]; lactam 1-C) as the compound, how does the MIC50 (Pichia kudriavzevii [1]) read?
A: The MIC50 was 0.25 µg/mL (≈ 0.219 µM).

Q: And the MIC90 (Pichia kudriavzevii [1])?
A: Its MIC90 is 0.5 µg/mL (≈ 0.438 µM).

Q: And the MFC (Pichia kudriavzevii [2])?
A: Its MFC is 0.25 µg/mL (≈ 0.219 µM).

Q: And the MFC (Pichia kudriavzevii [3])?
A: Its MFC is 0.5 µg/mL (≈ 0.438 µM).

Q: And the Time (Pichia kudriavzevii [4])?
A: Its Time is 1.9 h.

Q: And the Time (Pichia kudriavzevii [5])?
A: The Time was 2.1 h.

Q: And the MIC (Pichia kudriavzevii [6])?
A: The MIC was 0.12 µg/mL (≈ 0.105 µM).

Q: What about the MIC (Pichia kudriavzevii [7]) of the same compound?
A: The MIC was 0.5 µg/mL (≈ 0.438 µM).

Q: What about the MFC (Pichia kudriavzevii [8]) of the same compound?
A: Its MFC is 0.25 µg/mL (≈ 0.219 µM).

Q: And the Time (Pichia kudriavzevii [9])?
A: The Time was 22.4 h.

Q: And the MIC (Pichia kudriavzevii [10])?
A: The MIC was 0.12 µg/mL (≈ 0.105 µM).

Q: What about the MFC (Pichia kudriavzevii [11]) of the same compound?
A: Its MFC is 0.5 µg/mL (≈ 0.438 µM).

Q: What about the MFC (Pichia kudriavzevii [12]) of the same compound?
A: Its MFC is 0.5 µg/mL (≈ 0.438 µM).

Q: And the MFC (Pichia kudriavzevii [13])?
A: The MFC was 0.12 µg/mL (≈ 0.105 µM).

Q: What about the MIC (Pichia kudriavzevii [14]) of the same compound?
A: Its MIC is 0.12 µg/mL (≈ 0.105 µM).

Q: And the Time (Pichia kudriavzevii [15])?
A: The Time was 12.7 h.

Q: What about the Time (Pichia kudriavzevii [16]) of the same compound?
A: Its Time is greater than 48 h.

Q: What about the MFC50 (Pichia kudriavzevii [17]) of the same compound?
A: The MFC50 was 0.25 µg/mL (≈ 0.219 µM).

Q: What about the MFC90 (Pichia kudriavzevii [17]) of the same compound?
A: The MFC90 was 0.5 µg/mL (≈ 0.438 µM).

Q: And the MFC (Pichia kudriavzevii [17]; Pichia kudriavzevii, ATCC 6258, 48 h)?
A: The MFC was 0.12 µg/mL (≈ 0.105 µM).

Q: And the Time (Pichia kudriavzevii [18])?
A: Its Time is 6.4 h.

Q: What about the Time (Pichia kudriavzevii [19]) of the same compound?
A: The Time was 7.7 h.

Q: And the MFC (Pichia kudriavzevii [20])?
A: Its MFC is 0.5 µg/mL (≈ 0.438 µM).

Q: And the MIC (Pichia kudriavzevii [21])?
A: Its MIC is 0.03 µg/mL (≈ 0.0263 µM).

Q: What about the MFC (Pichia kudriavzevii [22]) of the same compound?
A: Its MFC is 8 µg/mL (≈ 7.02 µM).

Q: And the Time (Pichia kudriavzevii [23])?
A: Its Time is greater than 48 h.

Q: And the MIC50 (Pichia kudriavzevii [24])?
A: Its MIC50 is 0.12 µg/mL (≈ 0.105 µM).

Q: And the MIC90 (Pichia kudriavzevii [24])?
A: The MIC90 was 0.12 µg/mL (≈ 0.105 µM).

Q: What about the Time (Pichia kudriavzevii [25]) of the same compound?
A: The Time was 13.8 h.

Q: What about the MIC50 (Pichia kudriavzevii [26]) of the same compound?
A: Its MIC50 is 0.12 µg/mL (≈ 0.105 µM).

Q: What about the MIC90 (Pichia kudriavzevii [26]) of the same compound?
A: Its MIC90 is 0.25 µg/mL (≈ 0.219 µM).

Q: And the Time (Pichia kudriavzevii [27])?
A: The Time was 6.9 h.

Q: And the MIC (Pichia kudriavzevii [28])?
A: Its MIC is 0.12 µg/mL (≈ 0.105 µM).

Q: What about the MIC (Pichia kudriavzevii [29]) of the same compound?
A: The MIC was 0.06 µg/mL (≈ 0.0526 µM).

Q: And the MIC (Pichia kudriavzevii [30])?
A: The MIC was 0.12 µg/mL (≈ 0.105 µM).

Q: What about the Time (Pichia kudriavzevii [31]) of the same compound?
A: The Time was 19.1 h.

Q: And the Time (Pichia kudriavzevii [32])?
A: Its Time is 20.68 h.

Q: What about the Time (Pichia kudriavzevii [33]) of the same compound?
A: The Time was greater than 48 h.

Q: What about the MIC50 (Pichia kudriavzevii [34]) of the same compound?
A: Its MIC50 is 0.12 µg/mL (≈ 0.105 µM).

Q: And the MIC90 (Pichia kudriavzevii [34])?
A: Its MIC90 is 0.25 µg/mL (≈ 0.219 µM).

Q: What about the Time (Pichia kudriavzevii [35]) of the same compound?
A: Its Time is 6.7 h.

Q: What about the Time (Pichia kudriavzevii [36]) of the same compound?
A: The Time was greater than 48 h.

Q: What about the Time (Pichia kudriavzevii [37]) of the same compound?
A: Its Time is 25.5 h.
